Here are results for one molecule from EP0587106B1, “Compositions containing lipophilic salts having neutron activable cations” (VECTORPHARMA INTERNATIONAL S.p.A., priority 1992, dated 1994).

Values after ≈ are worked out from the molar mass of the structure shown. Some results are limits rather than exact numbers.

The series in a line: physchem.

The solubility is how much of the substance goes into solution per volume. Higher therefore signals a readily soluble substance. For the molecule `CCCCCCCCCCCCCC(=O)O` [Samarium miristate, samarium miristate], the solubility at 24 h is 90 µg/mL (≈ 394 µM) (pH 1.2), 8 µg/mL (≈ 35 µM) (pH 3), below 2 µg/mL (pH 5.2) and below 2 µg/mL (pH 7).
